Test results published in PubChem BioAssay (NCI).
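Five concentrations, 48 hours, 96-well plates. TGI denotes the concentration required for complete inhibition of growth.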

Key:
Assay in all cases: NCI tumour cell line growth inhibition, 48 h
T-47D breast = test system: T-47D breast
MDA-MB-231 breast = test system: MDA-MB-231 breast
NCI/ADR-RES ovarian = test system: NCI/ADR-RES ovarian
U251 CNS = test system: U251 CNS
UO-31 renal = test system: UO-31 renal
ACHN renal = test system: ACHN renal
OVCAR-5 ovarian = test system: OVCAR-5 ovarian
SK-MEL-2 melanoma = test system: SK-MEL-2 melanoma
MCF7 breast = test system: MCF7 breast
BT-549 breast = test system: BT-549 breast
UACC-62 melanoma = test system: UACC-62 melanoma
HT29 colon = test system: HT29 colon
HL-60(TB) leukemia = test system: HL-60(TB) leukemia
SF-295 CNS = test system: SF-295 CNS
SN12C renal = test system: SN12C renal
IGROV1 ovarian = test system: IGROV1 ovarian
RPMI-8226 leukemia = test system: RPMI-8226 leukemia
COLO 205 colon = test system: COLO 205 colon
HCT-15 colon = test system: HCT-15 colon
TK-10 renal = test system: TK-10 renal
SK-MEL-28 melanoma = test system: SK-MEL-28 melanoma
A549 NSCLC = test system: A549 NSCLC
NCI-H460 lung = test system: NCI-H460 lung
DU-145 prostate = test system: DU-145 prostate
OVCAR-4 ovarian = test system: OVCAR-4 ovarian
786-0 renal = test system: 786-0 renal
HOP-62 NSCLC = test system: HOP-62 NSCLC
SK-OV-3 ovarian = test system: SK-OV-3 ovarian
EKVX NSCLC = test system: EKVX NSCLC
HOP-92 NSCLC = test system: HOP-92 NSCLC
SW-620 colon = test system: SW-620 colon
SK-MEL-5 melanoma = test system: SK-MEL-5 melanoma
SF-539 CNS = test system: SF-539 CNS
SNB-19 CNS = test system: SNB-19 CNS
NCI-H522 lung = test system: NCI-H522 lung
MALME-3M melanoma = test system: MALME-3M melanoma
MOLT-4 leukemia = test system: MOLT-4 leukemia
HCC-2998 colon = test system: HCC-2998 colon
CAKI-1 renal = test system: CAKI-1 renal
CCRF-CEM leukemia = test system: CCRF-CEM leukemia
A498 renal = test system: A498 renal
HS 578T breast = test system: HS 578T breast
UACC-257 melanoma = test system: UACC-257 melanoma
NCI-H23 lung = test system: NCI-H23 lung
M14 melanoma = test system: M14 melanoma
HCT-116 colon = test system: HCT-116 colon
MDA-MB-435 = test system: MDA-MB-435
OVCAR-8 ovarian = test system: OVCAR-8 ovarian
SR leukemia = test system: SR leukemia
KM12 colon = test system: KM12 colon
MDA-N = test system: MDA-N
SF-268 CNS = test system: SF-268 CNS
PC-3 prostate = test system: PC-3 prostate
SNB-75 CNS = test system: SNB-75 CNS
K-562 leukemia = test system: K-562 leukemia
NCI-H226 lung = test system: NCI-H226 lung
RXF 393 renal = test system: RXF 393 renal
OVCAR-3 ovarian = test system: OVCAR-3 ovarian
LOX IMVI melanoma = test system: LOX IMVI melanoma
DMS 273 small cell lung = test system: DMS 273 small cell lung
KM20L2 colon = test system: KM20L2 colon
LXFL 529 NSCLC = test system: LXFL 529 NSCLC
DMS 114 small cell lung = test system: DMS 114 small cell lung
M19-MEL melanoma = test system: M19-MEL melanoma
SNB-78 CNS = test system: SNB-78 CNS
XF 498 CNS = test system: XF 498 CNS

Compound COc1cc2c3cc1Oc1c(OC)c(OC)cc4c1C(Cc1ccc(O)c(c1)Oc1ccc(cc1)CC3N(C)CC2)CN(C)C4 (configuration not stated) has a TGI (T-47D breast) of 69.6 µM, a TGI (MDA-MB-231 breast) of 28.1 µM and a TGI (NCI/ADR-RES ovarian) of 41.7 µM. The TGI (U251 CNS) was 24.7 µM, the TGI (UO-31 renal) was 29.8 µM and the TGI (ACHN renal) was greater than 100 µM. The TGI (OVCAR-5 ovarian) was 44.8 µM, the TGI (SK-MEL-2 melanoma) was 33.6 µM and the TGI (MCF7 breast) was 34.2 µM. The TGI (BT-549 breast) was 30.2 µM, the TGI (UACC-62 melanoma) was 32.1 µM and the TGI (HT29 colon) was 13.7 µM. The TGI (HL-60(TB) leukemia) was 6.11 µM, the TGI (SF-295 CNS) was 32.7 µM and the TGI (SN12C renal) was 34.7 µM. For the same compound, the TGI (IGROV1 ovarian) was 48.9 µM, the TGI (RPMI-8226 leukemia) was 47.6 µM and the TGI (COLO 205 colon) was 21.6 µM. For the same compound, the TGI (HCT-15 colon) was 33.9 µM, the TGI (TK-10 renal) was 32.2 µM and the TGI (SK-MEL-28 melanoma) was 31.9 µM. The TGI (A549 NSCLC) was 63.9 µM, the TGI (NCI-H460 lung) was 33.7 µM and the TGI (DU-145 prostate) was 60.8 µM. For the same compound, the TGI (OVCAR-4 ovarian) was 39.1 µM, the TGI (786-0 renal) was 22.9 µM and the TGI (HOP-62 NSCLC) was 37.2 µM. It also gave a TGI (SK-OV-3 ovarian) of 47.9 µM, a TGI (EKVX NSCLC) of 43.4 µM and a TGI (HOP-92 NSCLC) of 43.4 µM. It also gave a TGI (SW-620 colon) of 30 µM, a TGI (SK-MEL-5 melanoma) of 26.4 µM and a TGI (SF-539 CNS) of 26.9 µM. The TGI (SNB-19 CNS) was 84.5 µM, the TGI (NCI-H522 lung) was 26.2 µM and the TGI (MALME-3M melanoma) was 30.9 µM. The TGI (MOLT-4 leukemia) was 54.5 µM, the TGI (HCC-2998 colon) was 13.7 µM and the TGI (CAKI-1 renal) was 44.3 µM. It also gave a TGI (CCRF-CEM leukemia) of 15.6 µM, a TGI (A498 renal) of 31.2 µM and a TGI (HS 578T breast) of 38.9 µM. It also gave a TGI (UACC-257 melanoma) of 27.1 µM, a TGI (NCI-H23 lung) of 34.9 µM and a TGI (M14 melanoma) of 15 µM. The TGI (HCT-116 colon) was 19 µM, the TGI (MDA-MB-435) was 23.7 µM and the TGI (OVCAR-8 ovarian) was 31.3 µM. The TGI (SR leukemia) was 41.7 µM, the TGI (KM12 colon) was 26.3 µM and the TGI (MDA-N) was 24.5 µM. For the same compound, the TGI (SF-268 CNS) was 65.6 µM, the TGI (PC-3 prostate) was greater than 100 µM and the TGI (SNB-75 CNS) was 29.9 µM. For the same compound, the TGI (K-562 leukemia) was 29.6 µM, the TGI (NCI-H226 lung) was 68.9 µM and the TGI (RXF 393 renal) was 23.4 µM. For the same compound, the TGI (OVCAR-3 ovarian) was 30.9 µM.

For CCc1nc(N)nc(N)c1-c1ccc([N+](=O)[O-])c(NCc2ccccc2)c1, the TGI (T-47D breast) was greater than 46.8 µM, the TGI (LOX IMVI melanoma) was 45.4 µM and the TGI (MDA-MB-231 breast) was 38.1 µM. It also gave a TGI (NCI/ADR-RES ovarian) of 38.2 µM, a TGI (U251 CNS) of 30.1 µM and a TGI (UO-31 renal) of 22.2 µM. It also gave a TGI (ACHN renal) of 30.5 µM, a TGI (OVCAR-5 ovarian) greater than 100 µM and a TGI (SK-MEL-2 melanoma) of 50.2 µM. The TGI (MCF7 breast) was 40.2 µM, the TGI (BT-549 breast) was 47.1 µM and the TGI (UACC-62 melanoma) was 35.7 µM. For the same compound, the TGI (HT29 colon) was 23.2 µM, the TGI (HL-60(TB) leukemia) was 18.7 µM and the TGI (SF-295 CNS) was 28.4 µM. For the same compound, the TGI (SN12C renal) was 44.5 µM, the TGI (IGROV1 ovarian) was 26.3 µM and the TGI (RPMI-8226 leukemia) was 32.2 µM. It also gave a TGI (COLO 205 colon) of 35 µM, a TGI (HCT-15 colon) of 38.2 µM and a TGI (TK-10 renal) of 53.2 µM. The TGI (SK-MEL-28 melanoma) was 35.1 µM, the TGI (A549 NSCLC) was 24.8 µM and the TGI (NCI-H460 lung) was 20.2 µM. The TGI (DU-145 prostate) was 31.5 µM, the TGI (OVCAR-4 ovarian) was 58.1 µM and the TGI (786-0 renal) was 29.8 µM. For the same compound, the TGI (HOP-62 NSCLC) was 28.9 µM, the TGI (SK-OV-3 ovarian) was greater than 55.1 µM and the TGI (EKVX NSCLC) was 41.6 µM. The TGI (HOP-92 NSCLC) was 25.9 µM, the TGI (SW-620 colon) was 42.9 µM and the TGI (SK-MEL-5 melanoma) was 22.9 µM. It also gave a TGI (SF-539 CNS) of 39.3 µM, a TGI (SNB-19 CNS) of 38.9 µM and a TGI (NCI-H522 lung) of 35.6 µM. The TGI (MOLT-4 leukemia) was 26.6 µM, the TGI (HCC-2998 colon) was 36.7 µM and the TGI (CAKI-1 renal) was 29.3 µM. It also gave a TGI (CCRF-CEM leukemia) of 32.5 µM, a TGI (A498 renal) of 32.9 µM and a TGI (HS 578T breast) of 51.4 µM. The TGI (UACC-257 melanoma) was 30.9 µM, the TGI (NCI-H23 lung) was greater than 60.6 µM and the TGI (M14 melanoma) was 39.9 µM. For the same compound, the TGI (HCT-116 colon) was greater than 47.3 µM, the TGI (MDA-MB-435) was 38.3 µM and the TGI (OVCAR-8 ovarian) was 42.2 µM. It also gave a TGI (SR leukemia) of 31.1 µM, a TGI (KM12 colon) of 49.2 µM and a TGI (MDA-N) of 34.8 µM. For the same compound, the TGI (SF-268 CNS) was 40.3 µM, the TGI (PC-3 prostate) was 39.9 µM and the TGI (SNB-75 CNS) was 35.4 µM. It also gave a TGI (K-562 leukemia) of 20.7 µM, a TGI (NCI-H226 lung) of 46.8 µM and a TGI (RXF 393 renal) of 52.7 µM. For the same compound, the TGI (OVCAR-3 ovarian) was 36.6 µM.

CC(C)c1cccc(C(C)C)c1NC(=O)C(=O)C(C(=O)c1ccccc1-c1ccccc1)C1OC(=O)c2ccccc21 (configuration not stated) was tested, and the TGI (LOX IMVI melanoma) was 31.1 µM, the TGI (DMS 273 small cell lung) was 60 µM and the TGI (U251 CNS) was 25.4 µM. For the same compound, the TGI (UO-31 renal) was 36.5 µM, the TGI (ACHN renal) was greater than 100 µM and the TGI (OVCAR-5 ovarian) was 35.4 µM. It also gave a TGI (SK-MEL-2 melanoma) of 32.1 µM, a TGI (UACC-62 melanoma) of 44.1 µM and a TGI (HT29 colon) of 43.9 µM. It also gave a TGI (SF-295 CNS) of 37.6 µM, a TGI (SN12C renal) of 49.9 µM and a TGI (IGROV1 ovarian) of 74.7 µM. It also gave a TGI (RPMI-8226 leukemia) greater than 100 µM, a TGI (COLO 205 colon) of 81.5 µM and a TGI (KM20L2 colon) of 50.8 µM. For the same compound, the TGI (HCT-15 colon) was 44.5 µM, the TGI (TK-10 renal) was 46.1 µM and the TGI (SK-MEL-28 melanoma) was 71.9 µM. The TGI (A549 NSCLC) was greater than 100 µM, the TGI (LXFL 529 NSCLC) was 34.6 µM and the TGI (NCI-H460 lung) was 36.5 µM. It also gave a TGI (OVCAR-4 ovarian) of 45.9 µM, a TGI (786-0 renal) of 36.8 µM and a TGI (DMS 114 small cell lung) of 49.2 µM. It also gave a TGI (M19-MEL melanoma) of 63.6 µM, a TGI (SW-620 colon) of 37.8 µM and a TGI (SK-MEL-5 melanoma) of 29.5 µM. It also gave a TGI (SF-539 CNS) of 27.9 µM, a TGI (SNB-19 CNS) of 40.1 µM and a TGI (NCI-H522 lung) of 30.5 µM. It also gave a TGI (MALME-3M melanoma) of 33.9 µM, a TGI (SNB-78 CNS) of 73.2 µM and a TGI (MOLT-4 leukemia) of 74.1 µM. The TGI (HCC-2998 colon) was 32.5 µM, the TGI (CAKI-1 renal) was 76.5 µM and the TGI (CCRF-CEM leukemia) was 68.5 µM. The TGI (UACC-257 melanoma) was 29.9 µM, the TGI (NCI-H23 lung) was 3.32 µM and the TGI (HCT-116 colon) was 73.3 µM. It also gave a TGI (OVCAR-8 ovarian) of 35 µM, a TGI (XF 498 CNS) of 26 µM and a TGI (SR leukemia) greater than 100 µM. It also gave a TGI (KM12 colon) of 32.9 µM, a TGI (SF-268 CNS) of 61.5 µM and a TGI (K-562 leukemia) of 68.3 µM. It also gave a TGI (RXF 393 renal) of 27 µM.
